Where a name gives a salt, the structure may show the parent alone. Read-outs that look alike come from different tables or passages of the source.
Columns and labels:
[1] = target: full-length tau (T40) / 12 kD PHF-core tau fragment in fibroblast cells (3T6) (Homo sapiens, UniProt P10636); test: cell-based; format: cell-based
[2] = system: fibroblast cells (3T6); set-up: unit not given beside the values
[3] = target: tau-tau binding: truncated tau (residues 297-390; dGA) and full-length tau (T40) (Homo sapiens, UniProt P10636); conditions: for IC50: read-out: B50
[4] = system: viruses such as HIV and West Nile Virus; conditions: MTC under the name Virostat, from Bioenvision Inc.; cited from earlier work

tau-tau binding: truncated tau (residues 297-390; dGA) and full-length tau (T40), sequence (P10636 614-707): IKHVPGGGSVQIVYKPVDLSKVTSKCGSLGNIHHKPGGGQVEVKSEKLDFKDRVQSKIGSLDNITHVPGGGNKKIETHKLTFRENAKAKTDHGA
full-length tau (T40) / 12 kD PHF-core tau fragment in fibroblast cells (3T6), sequence (P10636 612-707): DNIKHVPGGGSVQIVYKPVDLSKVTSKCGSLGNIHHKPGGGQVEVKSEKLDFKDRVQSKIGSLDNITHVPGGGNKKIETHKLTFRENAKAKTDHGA

| Compound | EC50 [1] [nM] | LD50 [2] | IC50 [3] [nM] | B50 [3] | viricidal activity in vitro [4] | IC50 ([3]; concentration of compound required to inhibit the tau-tau binding by 50%, […]) [nM] |
| --- | --- | --- | --- | --- | --- | --- |
| 1,9-Diethyl Ethylthioninium chloride [DEETC] | 0.6 | 1.6 ± 0.4 (13) | 3700 | – | – | – |
| CCN(CC)c1ccc2nc3ccc(N(CC)CC)cc3[s+]c2c1 [ETZ, Ethylthioninium Chloride (ETC) Zinc Chloride (Double Salt)] | 60 | – | – | 145.4 ± 5.7 (5) | – | – |
| CN(C)c1ccc2nc3ccc(N(C)C)cc3[s+]c2c1 [MTC, Methythioninium Chloride] | – | – | – | – | potent viricidal activity | – |
| Ethyl-thioninium iodide [ETI] | 60 | – | – | – | – | > 500000 |
| Ethylthioninium Chloride [ETC] | 70 | 32.0 ± 4.0 (26) | 49000 | – | – | – |

Source: patent US7737138B2 (priority 2004, dated 2010)
